Here are results for twelve compounds from patent publication US11279682B2 (H. Lundbeck A/S, priority 2015, dated 2022).

Like-named read-outs stand apart in the source and are kept apart here.

A short description of data set [1]: Intrinsic dissolution rate, spinning-disc method. The format is physicochemical. To be noted: for IDR (mean of 2 determinations (mg/cm2/min)): 50 mM Tris at pH 6.8, 37° C./200 RPM, as free base. As for the experimental part:
The intrinsic dissolution rate (IDR) is expressed as mg vortioxetine dissolved per cm^2 surface per min. The intrinsic dissolution rate is measured using the “spinning-disc method” (μDISS Profiler Instrument from Pion Instruments).
In order to define the surface from which the test compound dissolves, miniaturized disks of compacted pure test compound are made (10 mg). The disk holding the test compound is inserted into a Teflon cup containing an imbedded magnet. The cup is inserted into a vial containing 20 ml dissolution medium (37° C./200 RPM). The dissolved test compound is measured by a fibre optic detection system (200-400 nm). The concentration is determined by comparison with a standard solution and the calculated amount of test compound released (as free base) per surface area is plotted versus time. The slope gives the intrinsic dissolution rate. The measurements are performed in duplicate. The dissolution medium was 50 mM Tris at pH 6.8. Vortioxetine HBr β-form is defined in WO 2007/144005 (see e.g. example 4c and 4d).

The conditions of data set [2]: cited from earlier work.
Data set [3] is described as follows: Dynamic Vapour Sorption (hygroscopicity). It counts as physicochemical. As to conditions: for Water absorbed (DVS, change in mass): humidity up to / at 95% relative humidity, 25° C. As for the experimental part: Dynamic Vapour Sorption spectra were obtained on equipment from SMS Systems (DVS Advantage). The change in mass (relative to the dry state) of a sample (10-20 mg) was determined as a function of the relative humidity (P/P0) at 25° C.

The nature of data set [4]: Gelling experiments (vortioxetine pyroglutamate, a salt and water in a vial, left upside down). The format is physicochemical. From the text: In one embodiment, the invention relates to a gel comprising vortioxetine pyroglutamate, a salt and water. […] A gel of the present invention is particularly useful for oral administration because it is easily swallowed compared to other oral administration forms, in particular tablets and capsules. A gel of the present invention may comprise other ingredients known in pharmaceutical science, in particular taste modifiers, as discussed above. In the present context and in line with the USP definition of a gel, a gel is intended to indicate a semisolid system consisting of either small […] or large organic molecules interpenetrated by a liquid. A gel thus presents as a coherent, viscous, plastic or non-disintegrating phase. […] In one embodiment, said gel comprises 0.1 M-1 M salt, such as 0.1 M-0.5 M salt, such as 0.1 M-0.3 M salt. […] The amounts of vortioxetine pyroglutamate are indicated as free base. It is the experience of the inventors that the volume of the aqueous phase and the final gel are roughly similar when the gel comprises a therapeutically relevant dose in a therapeutically relevant volume.
The gelling experiments were carried out in a 4 ml cylindrical vial with an inner diameter of approximately 1 cm.

Where [5] appears, read: known salts, values from the cited reference.
The mark [6] stands for this setting: Example 8: 7.6 mg, sodium bromide in water 0.18 M, 1.0 mL, 4 mL vial.
The mark [7] stands for this setting: Example 2: 10.2 mg, potassium bromide in water 0.23 M, 1.0 mL, 4 mL vial.
Setting [8] is: Example 1: 5.5 mg, potassium bromide in water 0.17 M, 1.0 mL, 4 mL vial.
Where [9] appears, read: Example 3: 6.2 mg, sodium bromide total 0.26 M, 1.0 mL, 4 mL vial.
Setting [10] is: Example 4: 10.7 mg, sodium bromide total 0.20 M, 1.0 mL, 4 mL vial.
Setting [11] is: Example 5: 0.80 g, sodium chloride in water 0.20 M, 100 mL, 250 mL round-bottomed flask.
Setting [12] is: Example 6: 8.0 mg, sodium chloride total 0.26 M, 1.0 mL, 4 mL vial.
The mark [13] stands for this setting: Example 7: 11.2 mg, sodium chloride total […], 1.0 mL, 4 mL vial.
Setting [14] is: Example 9: 14 mg, sodium chloride 26 mg and water 2.0 mL, 4 mL vial.

The term Solubility denotes the concentration that dissolves in the medium under given conditions.

On to `Cc1ccc(Sc2ccccc2N2CCNCC2)c(C)c1.O=C1CCC(C(=O)O)N1` [vortioxetine pyroglutamate], for which the “Dissolution rate compared to the HBr salt” value in data set [1] (Example 18) was “markedly higher dissolution rate”.

As for Maleate, in data set [2] (setting [5]), the “Solubility” value was 1 mg/mL.

As to `Cc1ccc(Sc2ccccc2N2CCNCC2)c(C)c1.O=C1CCC(C(=O)O)N1` [vortioxetine (L)-pyroglutamate, Vortioxetine (L)-pyroglutamate], in data set [1], the “IDR (mean of 2 determinations (mg/cm2/min))” value turned out to be 14.9 mg/cm2/min. Besides, the “Water absorbed (DVS, change in mass)” value in data set [3] came out at 2.7%. Also, in data set [4] (setting [6]), the “Standing time until a clear gel was formed” value is listed as “less than 1 minute” and the “Time vial left upside down with gel properties maintained” value (“Time vial left upside down” below) was “more than 30 minutes”.

With `Cc1ccc(Sc2ccccc2N2CCNCC2)c(C)c1.O=C1CCC(C(=O)O)N1` [vortioxetine (DL)-pyroglutamate α-form], the “Hygroscopicity (DVS)” value in data set [3] (DVS spectrum up to 95% relative humidity) is given as “not hygroscopic”. Also, the “Water absorbed (DVS, change in mass)” value in data set [3] (listed as vortioxetine (DL)pyroglutamate α-form) was “Less than 0.3%”. Further, in data set [4] (setting [7]), the “Standing time until a clear gel was formed” value is “less than 1 minute” and the “Time vial left upside down” value is recorded as “more than 1 hour”.

For `CC(O)C(=O)O.Cc1ccc(Sc2ccccc2N2CCNCC2)c(C)c1.O` [L-lactate Monohydrate2], the “Solubility” value in data set [2] (setting [5]) was 26 mg/mL.

In the case of `Cc1ccc(Sc2ccccc2N2CCNCC2)c(C)c1.O.O=C1CCC(C(=O)O)N1` [vortioxetine (DL)-pyroglutamate MH], the entries for the “Hygroscopicity (DVS)” value in data set [3] (at 95% relative humidity) and in data set [3] (up to 80% relative humidity at 25° C.) were “hygroscopic” and “not hygroscopic”, respectively. Also, the “Water absorbed (DVS, change in mass)” value in data set [3] is listed as “more than 10%”. Besides, the “Standing time until a clear gel was formed” value was “less than 1 minute” in data set [4] (setting [8]); “less than 1 minute” in data set [4] (setting [9]); “less than 1 minute” in data set [4] (setting [10]); 2 min in data set [4] (setting [11]); 6 min in data set [4] (setting [12]); 5 min in data set [4] (setting [13]). For the same compound, the “Time vial left upside down” value was “more than 1 hour” in data set [4] (setting [8]); “more than 30 minutes” in data set [4] (setting [9]); “more than 1 hour” in data set [4] (setting [10]); “more than 1 hour” in data set [4] (setting [12]); “more than 30 minutes” in data set [4] (setting [13]); “more than 10 minutes” in data set [4] (setting [14]). The “Time flask left upside down with gel properties maintained” value in data set [4] (setting [11]) is “more than 30 minutes”. Besides, the “Standing time until gel was formed” value in data set [4] (setting [14]) is “less than 1 minute”.

`Cc1ccc(Sc2ccccc2N2CCNCC2)c(C)c1.Cl` [HCl]: the “Solubility” value in data set [2] (setting [5]) is 3 mg/mL.

Phosphate: the “Solubility” value in data set [2] (setting [5]) is 1 mg/mL.

With `Br.Cc1ccc(Sc2ccccc2N2CCNCC2)c(C)c1`, the “Solubility” value in data set [2] ((Calculated), WO 2014/044721) is 3 to 3.8 mg/mL.

On to `CC(O)C(=O)O.Cc1ccc(Sc2ccccc2N2CCNCC2)c(C)c1` [DL-lactate β-form], for which the “Solubility” value in data set [2] (setting [5]) is 8 mg/mL.

Regarding `O=C1CCC(C(=O)O)N1` (racemic) [DL-Pyroglutamate], the “IDR (mean of 2 determinations (mg/cm2/min))” value in data set [1] is listed as 14.7 mg/cm2/min.

Consider `Br.Cc1ccc(Sc2ccccc2N2CCNCC2)c(C)c1` [HBr β-form, reference compound], for which the “IDR (mean of 2 determinations (mg/cm2/min))” value in data set [1] was found to be 0.10 mg/cm2/min. For the same compound, the “Solubility” value in data set [2] (setting [5]) was 1.2 mg/mL.
